The assay concerns the target T1, human prostatic 5α-reductase (Homo sapiens, UniProt P31213).
T1 construct: from homogenates of human benign prostatic hypertrophyc tissue as the enzyme source; from tissue; host or cells: human benign prostatic hypertrophic tissue, particulate fraction (nuclei, microsomes and mitochondria)
T1 sequence (P31213 1-254): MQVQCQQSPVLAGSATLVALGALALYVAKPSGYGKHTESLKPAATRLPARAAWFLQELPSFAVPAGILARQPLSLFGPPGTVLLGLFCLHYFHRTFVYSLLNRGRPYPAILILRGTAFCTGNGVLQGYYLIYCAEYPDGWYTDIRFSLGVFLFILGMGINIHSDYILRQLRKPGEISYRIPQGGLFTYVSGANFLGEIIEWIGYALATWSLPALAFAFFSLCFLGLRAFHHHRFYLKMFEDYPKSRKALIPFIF
Description: Inhibition of 5α-reductase in vitro, particulate fraction of human benign prostatic hypertrophic tissue homogenate. The assay is classed as biochemical. The settings on record: 1 μM [4-14C]testosterone, 5 mM NADPH, pH 5.5, 30 min at 37° C., read-out: concentration producing 50% inhibition on human prostatic 5α-reductase (IC50). As to the method:
For example, the inhibitory effect of the compounds of the invention on 5α-reductase was determined in vitro, according to the test procedure reported herebelow.
Inhibition of 5α-reductase was evaluated using the particulate fraction (containing nuclei, microsomes and mitochondria) from homogenates of human benign prostatic hypertrophyc tissue as the enzyme source.
The particulate fraction was prepared centrifuging prostate homogenate at 140,000 × g.
The resulting pellet, washed several times, was resuspended in buffer and stored at -80° C. in aliquots containing 10 mg protein/ml.
The assay for 5α-reductase was done in a final volume of 0.5 ml, containing 1 mM dithiothreitol, 40 mM TRIS-HCl buffer pH 5.5, 5 mM NADPH, 1 μM [4-^14 C]testosterone, 0.3 mg protein of the prostate particulate fraction and various concentrations of the inhibitors. […] Radioactivity on the plate was scanned and analyzed from quantitative plots printed by a TLC-analizer (Berthold). The fractional 5α-reduction of testosterone was calculated by relating the ^14 C-radioactivity in the 5α-reduced metabolites 5α-dihydrotestosterone, 3α- and 3β-androstanediols) regions to the total radioactivity in the testosterone and 5α-reduced metabolites regions. […]

In patent US5212166A, “Unsaturated 17β-subsituted 3-carboxy steroids” (Farmitalia Carlo Erba S.r.l., priority 1991, dated 1993) one finds IC50 data, which are given here for one compound.

Take `CC(C)NC(=O)N(C(=O)[C@H]1CC[C@H]2[C@@H]3CC=C4C=C(C(=O)O)CC[C@]4(C)[C@H]3CC[C@]12C)C(C)C` [17β-[N-isopropyl-N-(N-isopropylcarbamoyl)carbamoyl]androsta-3,5-diene-3-carboxylic acid]: the IC50 was found to be 3 nM.
